Experiments:
[1] = Growth inhibition of human OE21 cells after 3 days by MTT assay; format: functional, cell-based; settings: OE21, 72 h
Hs 683 = assay: cells; settings: Homo sapiens, Hs 683, 72 h
cells = settings: Homo sapiens, U373 MG, 72 h
T98G = assay: cells; settings: Homo sapiens, 72 h
OE33 = assay: Growth inhibition of human OE33 cells after 3 days by MTT assay; format: functional, cell-based; settings: OE33, 72 h

Compound	IC50 [1] [µM]	IC50 (Hs 683) [µM]	IC50 (cells) [nM]	IC50 (T98G) [µM]	IC50 (OE33) [µM]
Cc1c2c(cc[n+]1Cc1ccccc1F)c1ccc(OCC3CCCCC3)cc1n2CC1CCCCC1	0.35	0.25	1400	0.07	0.35
Cc1nccc2c3ccc(OCc4cccc(F)c4)cc3n(Cc3cccc(F)c3)c12	7.9	18	400	27	16
Cc1nccc2c1[nH]c1cc(OC(=O)c3ccccc3)ccc12	30	53	27000	42	31
CCCn1c2cc(OCc3ccccc3)ccc2c2cc[n+](Cc3ccc(F)cc3)c(C)c21	1.9	3.1	880	5.7	1
Cc1nccc2c1[nH]c1cc(OCc3ccccc3)ccc12	21	17	9300	17	4.1
CCCCCC[n+]1ccc2c3ccc(OCc4ccccc4)cc3n(Cc3ccccc3)c2c1C	1.9	0.6	700	3.1	–
Cc1c2c(cc[n+]1CCc1ccccc1)c1ccc(OCc3ccccc3)cc1n2Cc1ccccc1	2.4	2.3	2000	2.4	–
Cc1c2c(cc[n+]1CCO)c1ccc(OCCC(C)C)cc1n2CCC(C)C	7.6	4	2500	2.9	–
Cc1c2c(cc[n+]1Cc1ccccc1F)c1ccc(OCc3cccc(F)c3)cc1n2Cc1cccc(F)c1	1.4	2.2	600	0.7	3
Cc1c2c(cc[n+]1CCO)c1ccc(OCc3ccccc3)cc1n2Cc1ccccc1	25	31	9000	61	–
CCCn1c2cc(OCc3ccccc3)ccc2c2ccnc(C)c21	23	13	26000	34	9
Cc1c2c(cc[n+]1CCC(C)C)c1ccc(OCCC(C)C)cc1n2CCC(C)C	0.48	0.26	220	0.41	–
Cc1c2[nH]c3cc(OCc4ccccc4)ccc3c2cc[n+]1Cc1ccccc1	6	3.6	3900	5.6	5.5
Cc1c2c(cc[n+]1Cc1ccccc1F)c1ccc(OCc3ccccc3)cc1n2Cc1ccccc1	0.38	0.44	500	0.37	0.7
Cc1c2c(cc[n+]1Cc1ccccc1F)c1ccc(OCc3ccc(F)cc3)cc1n2Cc1ccc(F)cc1	1.6	1.2	500	0.43	1.6
Cc1nccc2c3ccc(OCCC(C)C)cc3n(CCC(C)C)c12	30	30	33000	35	–
Cc1c2c(cc[n+]1CCC(C)C)c1ccc(OCC3CCCCC3)cc1n2CC1CCCCC1	–	0.42	400	0.43	–
COc1ccc2c(c1)[nH]c1c(C)nccc12 [HARMINE]	32	–	32000	24	18
Cc1c2c(cc[n+]1Cc1ccc(F)cc1)c1ccc(OCc3ccccc3)cc1n2Cc1ccccc1	0.61	1.6	600	0.6	2.4
Cc1c2c(cc[n+]1CCc1ccccc1)c1ccc(OCCC(C)C)cc1n2CCC(C)C	3.7	3.1	3400	3.5	–
Cc1c2c(cc[n+]1Cc1ccccc1)c1ccc(OCc3cccc(F)c3)cc1n2Cc1cccc(F)c1	0.4	2.8	800	0.97	2.9

Compound	IC50 [1] [µM]	IC50 (Hs 683) [µM]	IC50 (cells) [nM]	IC50 (T98G) [µM]	IC50 (OE33) [µM]
Cc1c2c(cc[n+]1Cc1ccccc1)c1ccc(OCc3ccc(F)cc3)cc1n2Cc1ccc(F)cc1	0.5	0.9	430	0.4	1.4
CCCn1c2cc(OCc3ccccc3)ccc2c2cc[n+](Cc3ccccc3F)c(C)c21	0.42	0.45	390	1.8	0.25
Cc1nccc2c1[nH]c1cc(OCCO)ccc12	30	41	42000	53	63
Cc1nccc2c3ccc(OCc4ccc(F)cc4)cc3n(Cc3ccc(F)cc3)c12	15	17	30000	14	25
C=CCOc1ccc2c(c1)[nH]c1c(C)nccc12	27	28	32000	32	30
Cc1nccc2c3ccc(O)cc3n(Cc3ccccc3)c12	35	79	80000	81	35
Cc1c2c(cc[n+]1Cc1ccccc1)c1ccc(OCCC(C)C)cc1n2CCC(C)C	–	0.47	380	0.6	–
Cc1c2c(cc[n+]1CCO)c1ccc(OCC3CCCCC3)cc1n2CC1CCCCC1	–	3.8	1700	2.6	–
Cc1nccc2c1[nH]c1cc(OCCCC(F)(F)F)ccc12	> 100	> 100	> 100000	86	> 100
Cc1nccc2c1[nH]c1cc(OCc3ccncc3)ccc12	5	8.1	2500	3.6	6.3
Cc1nccc2c1[nH]c1cc(OCc3ccccn3)ccc12	16	20	21000	20	23
Cc1c2c(cc[n+]1CCC(C)C)c1ccc(OCc3ccccc3)cc1n2Cc1ccccc1	0.5	0.37	390	1.2	–
Cc1nccc2c1[nH]c1cc(OCC(C)C)ccc12	12	23	24000	22	25
Cc1nccc2c1[nH]c1cc(OCC3CCCCC3)ccc12	8.3	22	7500	7.2	8.1
CCCn1c2cc(OCc3ccccc3)ccc2c2cc[n+](Cc3ccccc3)c(C)c21	0.57	2.6	410	1.7	0.3
Cc1c2c(cc[n+]1CCc1ccccc1)c1ccc(OCC3CCCCC3)cc1n2CC1CCCCC1	–	0.31	200	0.26	–
Cc1nccc2c1[nH]c1cc(OCCc3ccccc3)ccc12	14	21	9100	21	7.9
Cc1c2c(cc[n+]1Cc1ccc(F)cc1)c1ccc(OCc3ccc(F)cc3)cc1n2Cc1ccc(F)cc1	3.7	13	2900	14	3.1
Cc1nccc2c1[nH]c1cc(OCc3cccc4ccccc34)ccc12	33	19	7400	12	8.2
CCC[n+]1ccc2c3ccc(OCc4ccccc4)cc3n(Cc3ccccc3)c2c1C	3.4	0.6	2500	11	–
Cc1c2c(cc[n+]1Cc1ccc(F)cc1)c1ccc(OCC3CCCCC3)cc1n2CC1CCCCC1	1.4	3.1	40	2	1
